In ChEMBL document CHEMBL2062511, “Synthesis and anti-HIV activities of symmetrical dicarboxylate esters of dinucleoside reverse transcriptase inhibitors” (Bioorg Med Chem Lett, 2012):

Legend:
[1] = Cytotoxicity against human PBMC; format: cell-based; conditions: read-out: TC50 (the source's name)
[2] = tested on: Human immunodeficiency virus 1; experiment: Antiviral activity against HIV-1 subtype B US/92/727 infected in PBMC assessed as inhibition of viral replication after 7 days by XTT assay; format: functional, organism-based; conditions: Human immunodeficiency virus 1, subtype B US/92/727, 168 h
[3] = tested on: Human immunodeficiency virus 1; experiment: Antiviral activity against HIV-1 subtype 3B infected in CEM-SS cells assessed as inhibition of viral replication after 6 days by XTT assay; format: functional, organism-based; conditions: Human immunodeficiency virus 1, subtype 3B, 144 h
[4] = tested on: Human immunodeficiency virus 1; experiment: Ratio of FLT EC50 to compound EC50 for HIV-1 subtype 3B infected in CEM-SS cells; format: functional
[5] = Therapeutic index, ratio of TC50 for human CEM-SS cells to EC50 for HIV-1 subtype 3B infected in CEM-SS cells; format: cell-based; conditions: uninfected and infected with HIV-1 subtype 3B, read-out: TI
[6] = Cytotoxicity against human CEM-SS cells by XTT method; format: cell-based; conditions: read-out: TC50 (the source's name)
[7] = Therapeutic index, ratio of TC50 for human PBMC to EC50 for HIV-1 subtype B US/92/727 infected in PBMC; conditions: uninfected and infected with HIV-1 subtype B US/92/727, read-out: TI
[8] = tested on: Human immunodeficiency virus 1; experiment: Ratio of FLT EC50 to compound EC50 for HIV-1 subtype B US/92/727 infected in PBMC; format: functional
[9] = tested on: Human immunodeficiency virus 1; experiment: Ratio of 3TC EC50 to compound EC50 for HIV-1 subtype 3B infected in CEM-SS cells; format: functional
[10] = tested on: Human immunodeficiency virus 1; experiment: Ratio of 3TC EC50 to compound EC50 for HIV-1 subtype B US/92/727 infected in PBMC; format: functional
[11] = tested on: Human immunodeficiency virus 1; experiment: Ratio of AZT EC50 to compound EC50 for HIV-1 subtype B US/92/727 infected in PBMC; format: functional

| SMILES | CC50 [1] [nM] | EC50 [2] [nM] | EC50 [3] [nM] | Ratio EC50 [4] | selectivity ratio [5] | CC50 [6] [nM] | selectivity ratio [7] | Ratio EC50 [8] | Ratio EC50 [9] | Ratio EC50 [10] | Ratio EC50 [11] |
| --- | --- | --- | --- | --- | --- | --- | --- | --- | --- | --- | --- |
| Cc1cn([C@H]2C[C@H](F)[C@@H](COC(=O)CCCCCCCCC(=O)OC[C@H]3O[C@@H](n4cc(C)c(=O)[nH]c4=O)C[C@@H]3F)O2)c(=O)[nH]c1=O | > 1000 | 1 | 4 | 5 | > 250 | > 1000 | > 1000 |  |  |  |  |
| Cc1cn([C@H]2C[C@H](F)[C@@H](COC(=O)CCCCCCCCCCC(=O)OC[C@H]3O[C@@H](n4cc(C)c(=O)[nH]c4=O)C[C@@H]3F)O2)c(=O)[nH]c1=O | > 1000 | 0.97 | 4 | 5 | > 250 | > 1000 | > 1030 | 2 |  |  |  |
| Cc1cn([C@H]2C[C@H](F)[C@@H](COC(=O)CCCCCCCCCCCCC(=O)OC[C@H]3O[C@@H](n4cc(C)c(=O)[nH]c4=O)C[C@@H]3F)O2)c(=O)[nH]c1=O | > 1000 | 0.76 | 3 | 5 | > 333 | > 1000 | > 1320 | 2 |  |  |  |
| Cc1cn([C@H]2C[C@H](N=[N+]=[N-])[C@@H](COC(=O)CCCCCCCCC(=O)OC[C@H]3O[C@@H](n4cc(C)c(=O)[nH]c4=O)C[C@@H]3N=[N+]=[N-])O2)c(=O)[nH]c1=O | > 1000 | 4 | 5 |  | > 200 | > 1000 | > 250 |  |  |  |  |
| Cc1cn([C@H]2C[C@H](N=[N+]=[N-])[C@@H](COC(=O)CCCCCCCCCCC(=O)OC[C@H]3O[C@@H](n4cc(C)c(=O)[nH]c4=O)C[C@@H]3N=[N+]=[N-])O2)c(=O)[nH]c1=O | > 1000 | 2 | 4 |  | > 250 | > 1000 | > 500 |  |  |  |  |
| Cc1cn([C@H]2C[C@H](N=[N+]=[N-])[C@@H](COC(=O)CCCCCCCCCCCCC(=O)OC[C@H]3O[C@@H](n4cc(C)c(=O)[nH]c4=O)C[C@@H]3N=[N+]=[N-])O2)c(=O)[nH]c1=O | > 1000 | 3 | 3 |  | > 333 | > 1000 | > 333 |  |  |  |  |
| Nc1ccn([C@@H]2CS[C@H](COC(=O)CCC(=O)OC[C@@H]3O[C@H](n4ccc(N)nc4=O)CS3)O2)c(=O)n1 | > 1000 | 150 | 130 |  | > 7.7 | > 1000 | > 7 |  |  |  |  |
| Nc1ccn([C@@H]2CS[C@H](COC(=O)CCCCCCCCC(=O)OC[C@@H]3O[C@H](n4ccc(N)nc4=O)CS3)O2)c(=O)n1 | > 1000 | 60 | 30 |  | > 33 | > 1000 | > 17 |  | 1.5 | 1.5 |  |
| Nc1ccn([C@@H]2CS[C@H](COC(=O)CCCCCCCCCCC(=O)OC[C@@H]3O[C@H](n4ccc(N)nc4=O)CS3)O2)c(=O)n1 | > 1000 | 20 | 9 |  | > 333 | > 1000 | > 50 |  |  |  |  |
| Nc1ccn([C@@H]2CS[C@H](COC(=O)CCCCCCCCCCCCC(=O)OC[C@@H]3O[C@H](n4ccc(N)nc4=O)CS3)O2)c(=O)n1 | > 1000 | 30 | 3 |  | > 333 | > 1000 | > 33 |  | 3 | 3 |  |
| Cc1cn([C@H]2C[C@H](F)[C@@H](CO)O2)c(=O)[nH]c1=O [ALOVUDINE] | > 500 | 2 | 20 | 4 | > 25 | > 500 | > 250 |  |  |  | 45 |
| Nc1ccn([C@@H]2CS[C@H](CO)O2)c(=O)n1 [LAMIVUDINE] | > 500 | 90 | 200 |  | > 2.5 | > 500 | > 5.6 |  |  |  |  |
| Cc1cn([C@H]2C[C@H](N=[N+]=[N-])[C@@H](CO)O2)c(=O)[nH]c1=O [ZIDOVUDINE] | > 1000 | 8 | 2 |  | > 250 | > 500 | > 125 |  |  |  |  |
